Where two headings read alike, the source gives them in different places.
Key:
Calu-6 = assay: IC50 assay, NSCLC cell lines (Cell Titer Glo, total ATP); format: cell-based; conditions: Homo sapiens
Outline: (§1)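 ~15% confluence seeding; RPMI/5% FBS/2 mM L-Gln; 3 d, 5% CO2; CellTiter-Glo ATP readout.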

H1155 = assay: as above; format: cell-based; conditions: Homo sapiens
Outline: as §1

H2122 = assay: as above; format: cell-based; conditions: Homo sapiens
Outline: as §1

H2170 = assay: as above; format: cell-based; conditions: Homo sapiens
Outline: as §1

DCAF15 and RBM39Δ150 [1] = biological target: T1, DCAF15 and RBM39Δ150 (Homo sapiens, UniProt Q14498+Q66K64); assay: Mass spec quantification of indisulam in RBM39 DCAF15 complex; format: binding; conditions: DCAF15 and wild type RBM39Δ150; 10 μM indisulam
T1 construct: Full-length cDNAs encoding CUL4A, CUL4B, DCAF15, and DDB1 were cloned into pLVX IRES Puro; made in house; host or cells: RBM39Δ150: Sf9 (baculovirus); DCAF15-3xFLAG: anti-FLAG beads from HCT-116 or 293T cells stably expressing it
T1 sequence (Q66K64 whole entry, stated change not applied): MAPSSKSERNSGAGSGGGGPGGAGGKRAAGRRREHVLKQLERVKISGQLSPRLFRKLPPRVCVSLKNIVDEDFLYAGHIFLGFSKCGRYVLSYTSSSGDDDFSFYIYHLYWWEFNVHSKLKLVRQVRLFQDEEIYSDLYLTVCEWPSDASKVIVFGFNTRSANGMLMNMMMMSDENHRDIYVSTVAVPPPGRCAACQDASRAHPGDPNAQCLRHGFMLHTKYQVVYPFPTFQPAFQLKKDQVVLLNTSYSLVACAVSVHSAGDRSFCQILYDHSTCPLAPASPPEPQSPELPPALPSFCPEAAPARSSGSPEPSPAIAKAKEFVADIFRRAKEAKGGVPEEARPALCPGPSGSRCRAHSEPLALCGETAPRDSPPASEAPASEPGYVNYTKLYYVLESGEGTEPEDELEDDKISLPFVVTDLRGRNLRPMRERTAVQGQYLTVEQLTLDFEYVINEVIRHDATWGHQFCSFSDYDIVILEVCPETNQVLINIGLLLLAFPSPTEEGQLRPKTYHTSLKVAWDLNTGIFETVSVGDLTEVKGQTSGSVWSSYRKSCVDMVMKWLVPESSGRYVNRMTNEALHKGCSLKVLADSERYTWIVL
T1 sequence (Q14498 151-530, stated change not applied): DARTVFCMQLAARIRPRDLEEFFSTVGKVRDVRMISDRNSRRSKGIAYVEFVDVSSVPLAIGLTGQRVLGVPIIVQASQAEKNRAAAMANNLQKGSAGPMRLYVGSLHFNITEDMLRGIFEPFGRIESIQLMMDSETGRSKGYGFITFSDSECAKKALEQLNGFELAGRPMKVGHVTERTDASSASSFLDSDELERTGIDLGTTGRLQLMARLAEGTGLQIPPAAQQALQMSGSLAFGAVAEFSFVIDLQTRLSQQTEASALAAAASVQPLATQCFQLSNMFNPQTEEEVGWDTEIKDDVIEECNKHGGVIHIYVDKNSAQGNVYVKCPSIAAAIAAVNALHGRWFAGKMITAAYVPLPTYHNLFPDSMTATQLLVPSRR
T1 sequence (Q16531 2-1140 partner): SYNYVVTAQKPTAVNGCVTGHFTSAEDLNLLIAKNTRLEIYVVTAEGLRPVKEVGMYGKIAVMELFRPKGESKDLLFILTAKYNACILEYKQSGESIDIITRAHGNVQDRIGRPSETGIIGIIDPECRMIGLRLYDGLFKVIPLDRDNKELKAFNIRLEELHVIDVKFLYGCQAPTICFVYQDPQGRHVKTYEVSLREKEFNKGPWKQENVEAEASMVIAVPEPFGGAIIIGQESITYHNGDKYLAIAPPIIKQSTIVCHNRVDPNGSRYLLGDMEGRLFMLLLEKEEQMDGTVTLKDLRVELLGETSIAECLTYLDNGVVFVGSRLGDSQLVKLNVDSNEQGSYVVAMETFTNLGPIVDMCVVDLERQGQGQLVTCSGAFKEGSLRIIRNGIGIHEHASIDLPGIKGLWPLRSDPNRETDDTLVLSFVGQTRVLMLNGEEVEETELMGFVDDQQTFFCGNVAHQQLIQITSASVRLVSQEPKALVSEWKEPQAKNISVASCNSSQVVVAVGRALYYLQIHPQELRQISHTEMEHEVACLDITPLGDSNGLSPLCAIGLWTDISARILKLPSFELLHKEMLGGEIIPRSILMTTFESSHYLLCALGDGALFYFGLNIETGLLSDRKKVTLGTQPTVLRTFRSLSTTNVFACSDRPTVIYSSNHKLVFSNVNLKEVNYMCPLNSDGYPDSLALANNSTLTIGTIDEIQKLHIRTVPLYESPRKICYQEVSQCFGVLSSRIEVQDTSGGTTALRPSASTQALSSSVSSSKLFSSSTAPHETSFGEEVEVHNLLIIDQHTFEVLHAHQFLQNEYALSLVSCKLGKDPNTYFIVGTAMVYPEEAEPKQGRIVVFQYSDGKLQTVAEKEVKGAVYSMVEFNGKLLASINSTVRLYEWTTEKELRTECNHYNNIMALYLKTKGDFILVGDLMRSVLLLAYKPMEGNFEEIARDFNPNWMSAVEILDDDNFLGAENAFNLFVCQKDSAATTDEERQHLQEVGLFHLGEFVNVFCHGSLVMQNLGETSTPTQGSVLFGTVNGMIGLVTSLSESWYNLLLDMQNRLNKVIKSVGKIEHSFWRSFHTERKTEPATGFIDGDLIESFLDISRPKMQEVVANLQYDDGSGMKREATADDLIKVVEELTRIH
Source text: (§2) RBM39-3xFLAG was immunopurified from HCT-116 cells expressing RBM39-3xFLAG (endogenous tag) using the cryomill procedure. DCAF15-3xFLAG was purified from 293T cells stably expressing DCAF15-3xFLAG through lentiviral transduction. […] Afterwards, beads were washed twice with 1×PBS, 0.1% NP40 and twice with 1×PBS. […] The tolbutamide internal standard (IS) was detected using the transition 269.1 to 169.9 (negative mode; M-H^−). […] The limit of quantitation (lowest quantifiable point on the standard curve with accuracy within 20% upon back calculation and at least 3-fold above background) for this method was 50 pg/ml.

DCAF15 and RBM39Δ150 [2] = biological target: T2, DCAF15 and RBM39Δ150 (Homo sapiens, UniProt Q14498+Q66K64, P272S); assay: as above; format: binding; conditions: DCAF15 and RBM39Δ150 P272S; 10 μM indisulam
T2 construct: Full-length cDNAs encoding CUL4A, CUL4B, DCAF15, and DDB1 were cloned into pLVX IRES Puro; made in house; host or cells: RBM39Δ150: Sf9 (baculovirus); DCAF15-3xFLAG: anti-FLAG beads from HCT-116 or 293T cells stably expressing it
T2 sequence (Q66K64 whole entry, stated change not applied): as the sequence (Q66K64 whole entry, stated change not applied) above
T2 sequence (Q14498 151-530 P272S, stated change not applied): as the sequence (Q14498 151-530, stated change not applied) above, with P122S counted along it
T2 sequence (Q16531 2-1140 partner, stated change not applied): as the sequence (Q16531 2-1140 partner) above
Source text: as §2

DCAF15 and RBM39Δ150 [3] = assay: as above; format: binding, human
Source text: as §2

[4] = tested on: TRIM27 mRNA and RBM3 mRNA; assay: PCR validation of splicing changes; format: cell-based, human
Experimental: RNAs isolated from indisulam or siRNA treated cells were first treated with Turbo DNase (Life Technologies) to remove contaminating genomic DNA. After RNA cleanup with Quick-RNA MiniPrep kit (Zymo Research), 500 ng of total RNAs was converted into cDNAs with Multiscribe reverse transcriptase (Life Technologies). Exon skipping in TRIM27 was visualized by PCR amplification with 5′-[…]-3′ (SEQ ID NO: 3) and 5′-[…]-3′ (SEQ ID NO: 4) from cDNAs. […] Relative RNA levels were calculated based on 2^−ct method using Cyclophilin mRNA for normalization. The following primers were used for quantification of mRNA levels: […]

NS(=O)(=O)c1ccc(S(=O)(=O)Nc2cccc3c(Cl)c[nH]c23)cc1 [Indisulam, indisulam]
IC50 (Calu-6; read-out: Indisulam IC50 (log 10) (converted), U2AF1 WT): 1.51 µM
IC50 (Calu-6; read-out: Indisulam IC50, U2AF1 WT): 1.51 µM
IC50 (H1155; NCI-H1155, read-out: Indisulam IC50 (log 10) (converted), U2AF1 WT): 0.242 µM
IC50 (H1155; NCI-H1155, read-out: Indisulam IC50, U2AF1 WT): 0.242 µM
IC50 (H2122; NCI-H2122, read-out: Indisulam IC50 (log 10) (converted), U2AF1 WT): 18.8 µM
IC50 (H2122; NCI-H2122, read-out: Indisulam IC50, U2AF1 WT): 18.8 µM
IC50 (H2170; NCI-H2170, read-out: Indisulam IC50 (log 10) (converted), U2AF1 WT): 29.6 µM
IC50 (H2170; NCI-H2170, read-out: Indisulam IC50, U2AF1 WT): 29.6 µM
amount of indisulam in complex (LC-MS) (DCAF15 and RBM39Δ150 [1]): highest levels of indisulam
amount of indisulam in complex (LC-MS) (DCAF15 and RBM39Δ150 [2]): lower levels of indisulam
amount of indisulam in complex (LC-MS) (DCAF15 and RBM39Δ150 [3]; DCAF15 and M265L or E271Q variants of RBM39Δ150): no indisulam was detected
amount of indisulam (LC-MS) (DCAF15 and RBM39Δ150 [3]; either DCAF15 or RBM39 alone): no indisulam was identified
splicing of TRIM27 mRNA (RT-PCR) [4]: dose-dependent exon skipping
splicing of RBM3 mRNA (RT-PCR) ([4]; indisulam dose-dependent): intron retention

Reference: patent US20180140578A1, “METHODS AND COMPOSITIONS FOR THE DIAGNOSIS AND SELECTIVE TREATMENT OF CANCER” (Board of Regents of the University of Texas System, priority 2016, published 2018)
